# Activity calls are given as the source filed them. No rule for the calls is given here.
# Tested on: Jurkat NF-kB reporter, TCR-induced, luciferase luminescence
# Test: inhibitors of TCR-driven NF-kB activation, dose response, Jurkat cells, luminescence (AID 489035)
row,SMILES,IC50
1,Cc1oc(-c2ccc(Cl)cc2)nc1CS(=O)CC(=O)NCCCN1CCN(Cc2ccccc2)CC1 (centres undefined),26.4 µM (inactive)
2,CN(C)c1ccc2c(c1)OC(N)=C(C#N)C2c1cccc(F)c1 (centres undefined),50.2 µM (inactive)
3,CCO[C@H]1OC(C(=O)NCc2nc3ccccc3[nH]2)=C[C@@H](C2CC2)[C@@H]1CCCO,> 80 µM (inactive)
4,C=C(C)C(=O)O[C@H]1C/C(C)=C\C(=O)/C=C(\C)[C@H](O)[C@@H]2OC(=O)C(=C)[C@@H]21,2.06 µM
5,COc1ccc(CC(=O)Nc2cccc(-c3nnc(-c4cccc(C)c4)o3)c2)cc1OC,47.6 µM (inactive)
6,Cn1c2c(c(=O)n(C)c1=O)C(C(F)(F)F)(C(F)(F)F)N=C(c1ccc(Cl)cc1)N2,> 80 µM (inactive)
7,O=C(c1ccccc1)c1cc([N+](=O)[O-])ccc1N1CCOCC1,> 80 µM (inactive)
8,CCC(=O)NC(c1cccs1)c1ccc2cccnc2c1O (centres undefined),60.4 µM (inactive)
9,COc1ccc(-[n+]2c(-c3ccccc3)cc(-c3ccc(C)cc3)cc2-c2ccccc2)cc1,4.95 µM
10,Cc1ccc(S(=O)(=O)/N=C2\C=C(Nc3ccc(O)cc3)C(=O)c3ccccc32)cc1,0.62 µM
11,COc1ccc(NC(=O)C(=O)NCC2CCCN2S(=O)(=O)c2cccs2)cc1 (centres undefined),7.15 µM
12,Cc1ccc2oc(/N=C(\N)NC(=O)C(C)(C)C)nc2c1,6.68 µM
13,Clc1ccc(CSc2nncn2-c2ccc3c(c2)OCCO3)cc1,> 80 µM (inactive)
14,CN(C)c1ccc(-c2nn3c(-c4ccccc4Cl)nnc3s2)cc1,> 80 µM (inactive)
15,CCS(=O)(=O)c1ncc(Cl)c(C(=O)Nc2ccc(S(=O)(=O)N(C)c3ccccc3)cc2)n1,0.8 µM
16,COc1cc(-c2noc(C)c2/C=C/c2ccc(OC(C)=O)cc2)cc(OC)c1OC,31.5 µM (inactive)
17,COc1ccc(C(NC(=O)C(C)C)c2ccc3cccnc3c2O)cc1 (centres undefined),5.96 µM
18,Cc1cc(-c2ccc(S(=O)(=O)N(C)c3ccc(C)c(C)c3)s2)on1,> 80 µM (inactive)
19,CC(=O)Nc1ccc(S(=O)(=O)N2c3ccc(F)cc3CCC2C)cc1 (centres undefined),7.46 µM
20,Cc1nn(-c2ccccc2Cl)c(Cl)c1/C=N/Nc1nc2ccccc2s1,< 0.16 µM
21,COc1cc(NS(C)(=O)=O)ccc1Nc1c2ccccc2nc2ccccc12,9.5 µM
22,Cc1c(C(=O)OC2CCCC2)[nH]c2c1C(=O)CC(c1ccco1)C2 (centres undefined),> 80 µM (inactive)
23,COc1cccc(-c2cc(C(=O)Nc3cc(C)n(Cc4ccc(Cl)cc4)n3)no2)c1,> 80 µM (inactive)
24,CCOC(=O)c1[nH]c(C)c(C(=O)Nc2ccc(C)cc2C)c1C,> 80 µM (inactive)
25,COc1cccc2sc(Nc3nnc(-c4ccccc4Cl)o3)nc12,> 80 µM (inactive)
26,CCC(=O)NC(c1ccc(C)cc1)c1ccc2cccnc2c1O (centres undefined),11.6 µM
27,O=Cc1cc2ccccc2nc1SCc1ccc(Cl)c(Cl)c1,> 80 µM (inactive)

row,SMILES,IC50
1,O=C(Nc1ccc(S(=O)(=O)Nc2ccc(F)cc2)cc1)c1ccc(CN2CCOCC2)cc1,40.8 µM (inactive)
2,COC(=O)c1[nH]c2c(c1C)C(=O)CC(c1cccc(OC)c1)C2 (centres undefined),> 80 µM (inactive)
3,CCOC(=O)c1ccc2nc(Nc3nc4ccc(F)cc4s3)sc2c1,75.4 µM (inactive)
4,CCCC(=O)Nc1nc2ccc(S(=O)(=O)N3CCCCC3)cc2s1,> 80 µM (inactive)
5,CCN1C/C(=C/c2ccc(OC)c(O)c2)C(=O)/C(=C/c2ccc(OC)c(O)c2)C1,22.5 µM (inactive)
6,COc1cccc(CN(C)C(=O)c2ccc(OCC(=O)Nc3cccc(C(F)(F)F)c3)c(OC)c2)c1,40.5 µM (inactive)
7,CCCc1cc(C(=O)Nc2cc(C)ccc2O)no1,> 80 µM (inactive)
8,CC(=O)c1sc2c(c1OC(=O)c1ccc(Cl)cc1Cl)c(=O)n(-c1ccccc1)c(=S)n2-c1ccccc1,1.35 µM
9,CCn1ncc(C2=NOC(C(=O)NCc3ccccc3)C2)c1C (centres undefined),< 0.16 µM
10,CCCC1=Nc2cc(C(=O)NCCCOCC)ccc2Sc2ccccc21,24 µM (inactive)
11,C[C@@H]1O[C@@H](O[C@H]2C[C@@H](O)[C@]3(CO)[C@H]4[C@H](O)C[C@]5(C)[C@@H](C6COC(=O)C6)CC[C@]5(O)[C@@H]4CC[C@]3(O)C2)[C@H](O)[C@H](O)[C@H]1O (some centres undefined),> 80 µM (inactive)
12,Cc1ccccc1NS(=O)(=O)c1ccc(N2CCCC2=O)cc1,71.8 µM (inactive)
13,O=C(Nc1nc(-c2ccccn2)cs1)c1ccc(Cl)s1,2.64 µM
14,CCOC(=O)N1CCN(C(=O)C2CCCN(Cc3nc(-c4ccc(Cl)cc4)oc3C)C2)CC1 (centres undefined),> 80 µM (inactive)
15,CCCCC(=O)NC(c1ccc(Cl)cc1)c1ccc2cccnc2c1O (centres undefined),8.39 µM
16,CC#CC(=O)N1CCC(n2nccc2NC(=O)c2ccc3c(c2)OCO3)CC1,> 80 µM (inactive)
17,COc1cc(-c2noc(C)c2C#Cc2ccsc2)cc(OC)c1OC,> 80 µM (inactive)
18,COc1cccc(/C=N/Nc2ncnc3scc(-c4ccccc4)c23)c1O,1.26 µM
19,CC1(C)Cc2c(sc(NC(=O)COc3cccc4ccccc34)c2C#N)C(C)(C)N1,13.5 µM
20,C=C1C(=O)C=C2CN(C(=O)c3ccccc3)[C@@](Cc3ccc(F)cc3)(C(=O)OC)[C@@H]12,0.89 µM
21,COc1cc(Nc2ccc(C)cc2)c([N+](=O)[O-])nc1[N+](=O)[O-],> 80 µM (inactive)
22,COC(=O)C[C@]1(C(=O)OC)CN(C#N)N(c2ccc(Cl)cc2)C12c1ccccc1-c1ccccc12,0.73 µM
23,C#Cc1ccc([C@@H]2C=C(C(=O)N3CCN(Cc4ccccc4)CC3)O[C@H](OCCCCO)C2)cc1,> 80 µM (inactive)
24,COC(=O)c1[nH]c2ccc(F)cc2c1NS(=O)(=O)c1ccc(OC)cc1,> 80 µM (inactive)
25,O=[N+]([O-])c1nn(-c2ccc3c(c2)OCCO3)n(O)c1=Nc1ccccc1,1.05 µM
26,CCN(CC)S(=O)(=O)c1cc(NC(=O)CNc2cccc(S(=O)(=O)N3CCCC3)c2)ccc1C,> 80 µM (inactive)
27,CCOC(=O)c1[nH]c(C)c(C(=O)c2cc(F)ccc2F)c1C,> 80 µM (inactive)

row,SMILES,IC50
1,CN(Cc1ccccc1)C1=CC(=[N+]2CCCC2)CC(C)(C)C1,55.1 µM (inactive)
2,C[C@]12CC[C@H]3[C@@H](CC[C@]4(O)C[C@@H](O)CC[C@]34C=O)[C@@]1(O)CC[C@@H]2C1=CC(=O)OC1,68.9 µM (inactive)
3,Cc1cc(O)c2c(c1O)C(=O)[C@]13C(=C2O)C(=O)[C@@H]2[C@@H](O)[C@H]1[C@@H]1[C@H](O)[C@H]3C(=O)C3=C(O)c4c(O)cc(C)c(O)c4C(=O)[C@]312,< 0.16 µM
4,Cc1ccc(NC(=O)CSc2nc(-c3ccco3)cc(C(F)(F)F)n2)cc1C,> 80 µM (inactive)
5,O=C(c1cn(Cc2ccccc2)nc1-c1ccccc1)N1CCN(c2ccccn2)CC1,> 80 µM (inactive)
6,CCOc1ccc(S(=O)(=O)NCc2ccccn2)cc1NC(=O)c1ccccc1,> 80 µM (inactive)
7,CCN1C=CC(=C2C(=O)c3ccccc3C2=O)C=C1,1.03 µM
8,CCn1c(C)cc(C(=O)CN2C(=O)c3ccccc3S2(=O)=O)c1C,1.68 µM
9,COc1ccc(OC)c(CCNC(=O)Cn2nc(C)c3c(C)n(-c4ccc(C)cc4)nc3c2=O)c1,7.63 µM
10,COc1ccc(C2=Nn3c(nnc3-c3ccccc3OC)SC2)cc1OC1CCCC1,15.3 µM
11,Cc1ccc(NC(=O)Nc2ccnc(-c3cccnc3)n2)cc1,0.84 µM
12,O=C(CNC(=O)c1ccco1)N=Nc1c(O)n(CCc2ccccc2)c2ccccc12,> 80 µM (inactive)
13,CCCCCCCCCCCCCCCC[n+]1ccc(/C=N/O)cc1,1.57 µM
14,COc1ccc(NC(=O)C(=O)NCC2CCCN2S(=O)(=O)c2ccc(C)cc2)cc1 (centres undefined),> 80 µM (inactive)
15,O=C(Nc1ccn(Cc2ccccc2F)n1)c1ccc(COc2ccc(Br)cc2)cc1,> 80 µM (inactive)
16,Cc1cc(C)cc(NC(=O)c2cc(C)n(Cc3cccs3)c2C)c1,5.13 µM
17,Cc1c(C(=O)OCC(C)C)[nH]c2c1C(=O)CC(c1cccs1)C2 (centres undefined),> 80 µM (inactive)
18,CCOc1ccc(N(CC(=O)Nc2ccccc2C)S(=O)(=O)c2c(C)noc2C)cc1,> 80 µM (inactive)
19,Cn1nc(C(C)(C)C)cc1C(=O)NCc1cc(F)cc2c1OCOC2,> 80 µM (inactive)
20,COc1ccc2c(C)nc(Nc3nc(-c4ccccc4)cc(=O)[nH]3)nc2c1,> 80 µM (inactive)
21,CC1(C)C[C@H]2C=C(C=O)[C@]3(C=O)C[C@]3(C)[C@H]2C1,9.17 µM
22,CCOC(=O)C(C)Oc1cccc2c(=O)n(CC(=O)NCc3ccc4c(c3)OCO4)ccc12 (centres undefined),9.88 µM
23,C/C=C/COC(=O)c1[nH]c2c(c1C)C(=O)CC(c1ccco1)C2 (centres undefined),> 80 µM (inactive)
24,CSc1nc(N(C)NC(=O)c2cccc(C)c2)c2ccccc2n1,27.8 µM (inactive)
25,Nc1nc2n[nH]nc2c(=O)[nH]1,> 80 µM (inactive)
